{
  "source": "patent US20200316208A1",
  "about": "“MECHANICAL PROCESSING OF BIOPOLYMERS” (SolyPlus Berlin GmbH, priority 2017, published 2020)",
  "test_system": "skin",
  "details": "application to skin; 0.3% (m/m) histamine dihydrochloride solution used",
  "data": [
    {"smiles": "Cl.Cl.NCCc1c[nH]cn1", "note": "[histamine solution droplet, Histamine dihydrochloride]", "values": [
      {"measurement": "skin reaction (swelling, reddening, itchy feeling)", "result": "No effect"}
    ]}
  ]
}
